Data reported in article PMC10880924, “Small molecule WDR5 inhibitors down-regulate lncRNA expression” (RSC Medicinal Chemistry, 2024).
Where two headings read alike, the source gives them in different places. Bridge positions count the residues as written; N and C are the ends. Square brackets hold non-standard residues; d marks the D form. Peptide text beside a SMILES is read from it. Dab = NCC[C@H](N)C(=O)O

What was measured:
WDR5^WT (WBM site) = WDR5^WT (WBM site) (Homo sapiens, UniProt P61964)
WDR5^WT (WIN site) = WDR5^WT (WIN site) (Homo sapiens, UniProt P61964); conditions: for inhibition at the WIN site: competitive FP, tracer 1F
[1] = test system: TGF-β1 expression in MDA-MB-231 cells; conditions: 3 d, vs blank = 1.000, mean ± SD
[2] = test system: FOXD3-AS1 expression in MDA-MB-231 cells; conditions: for FOXD3-AS1 fold change: mean ± SD
[3] = test system: HOTTIP expression in MDA-MB-231 cells; conditions: for HOTTIP fold change: mean ± SD
[4] = 1 µM, 3 d, exp 8 (individual bioreplicate), vs blank = 1.000
[5] = 1 µM, 3 d, exp 9 (individual bioreplicate), vs blank = 1.000
[6] = 5 µM, 3 d, exp 7 (individual bioreplicate), vs blank = 1.000
[7] = 5 µM, 3 d, exp 8 (individual bioreplicate), vs blank = 1.000
[8] = 5 µM, 3 d, exp 9 (individual bioreplicate), vs blank = 1.000
[9] = 10 µM, 1 d, Exp. 1 (individual bioreplicate), vs blank 0.1% DMSO = 1.000
[10] = 10 µM, 1 d, Exp. 2 (individual bioreplicate), vs blank 0.1% DMSO = 1.000
[11] = 10 µM, 1 d, Exp. 3 (individual bioreplicate), vs blank 0.1% DMSO = 1.000
[12] = 10 µM, 1 d, Exp. 4 (individual bioreplicate), vs blank 0.1% DMSO = 1.000
[13] = 10 µM, 1 d, Exp. 5 (individual bioreplicate), vs blank 0.1% DMSO = 1.000
[14] = 10 µM, 1 d, Exp. 6 (individual bioreplicate), vs blank 0.1% DMSO = 1.000
[15] = 10 µM, 3 d, Exp. 7 (individual bioreplicate), vs blank 0.1% DMSO = 1.000
[16] = 10 µM, 3 d, Exp. 8 (individual bioreplicate), vs blank 0.1% DMSO = 1.000
[17] = 10 µM, 3 d, Exp. 9 (individual bioreplicate), vs blank 0.1% DMSO = 1.000
[18] = 10 µM, 3 d, Exp. 10 (individual bioreplicate), vs blank 0.1% DMSO = 1.000
[19] = 10 µM, 3 d, Exp. 11 (individual bioreplicate), vs blank 0.1% DMSO = 1.000
[20] = 10 µM, 3 d, Exp. 12 (individual bioreplicate), vs blank 0.1% DMSO = 1.000
[21] = MDA-MB-231, three days, 1/5/10 μM tested

For `CC(=O)N[C@@H](C)C(=O)N[C@@H](CCCNC(=N)N)C(=O)N[C@H](C(=O)N[C@@H](CCC(=O)O)C(=O)N[C@H](C(=O)N[C@@H](Cc1c[nH]cn1)C(=O)N[C@@H](CC(C)C)C(=O)N[C@@H](CCCNC(=N)N)C(=O)N[C@@H](CCCCN)C(=O)N[C@@H](CO)C(N)=O)C(C)C)[C@@H](C)O` [1NH2], the “inhibition at the WBM site” value (WDR5^WT (WBM site); competitive FP, tracer 2F) was “does not inhibit the WBM-site”.
`CC[C@H](C)[C@H](NC(=O)[C@H](CCC(=O)O)NC(=O)[C@H](CCC(=O)O)NC(=O)[C@H](CCC(=O)O)NC(=O)[C@H](CC(=O)O)NC(C)=O)C(=O)N[C@H]1CC(=O)NCC[C@@H](C(=O)N[C@H](C(=O)N[C@@H](CCC(=O)O)C(N)=O)C(C)C)NC(=O)[C@H](C(C)C)NC(=O)[C@H](C(C)C)NC1=O` [2Ac] (Ac-DEEEIDVV[Dab]VE-NH2; lactam 6-9) was tested, and the “inhibition at the WIN site” value (WDR5^WT (WIN site)) was “vice versa”.
In the case of `CNC(=O)c1cc(C2(C#N)CCC2)cc(NS(=O)(=O)c2cc(Br)cc(Cl)c2O)c1O` [7k, 3-((5-Bromo-3-chloro-2-hydroxyphenyl)sulfonamido)-5-(1cyanocyclobutyl)-2-hydroxy-N-methylbenzamide], the TGF-β1 fold change ([1]; 1 µM, exp 7 (individual bioreplicate)) is reported as 0.972 ± 0.048, the TGF-β1 fold change ([1]; 1 µM, exp 8 (individual bioreplicate)) is reported as 1.020 ± 0.062 and the TGF-β1 fold change ([1]; 1 µM, exp 9 (individual bioreplicate)) is reported as 1.060 ± 0.127. The TGF-β1 fold change ([1]; 5 µM, exp 7 (individual bioreplicate)) was 0.916 ± 0.056, the TGF-β1 fold change ([1]; 5 µM, exp 8 (individual bioreplicate)) was 1.009 ± 0.079 and the TGF-β1 fold change ([1]; 5 µM, exp 9 (individual bioreplicate)) was 1.003 ± 0.120. The TGF-β1 fold change ([1]; 10 µM, exp 7 (individual bioreplicate)) was 0.972 ± 0.055, the TGF-β1 fold change ([1]; 10 µM, exp 8 (individual bioreplicate)) was 0.987 ± 0.059 and the TGF-β1 fold change ([1]; 10 µM, exp 9 (individual bioreplicate)) was 0.942 ± 0.101. For the same compound, the Ki (WDR5^WT (WBM site); read-out: Ki (tracer 2F), WBM site, WDR5^WT 500 nM, 2F 5.0 nM, HEPES pH 7.0, 0.01% Triton-X, 1% DMSO, mean ± SD of four replicates (two biological x two technical), converted from IC50) was 0.107 ± 0.02 µM, the FOXD3-AS1 fold change [2, 4] was 0.984 ± 0.128 and the FOXD3-AS1 fold change [2, 5] was 0.971 ± 0.104. It also gave an FOXD3-AS1 fold change [2, 6] of 0.753 ± 0.078, an FOXD3-AS1 fold change [2, 7] of 1.178 ± 0.131 and an FOXD3-AS1 fold change [2, 8] of 1.020 ± 0.085. For the same compound, the FOXD3-AS1 fold change [2, 9] was 0.913 ± 0.098, the FOXD3-AS1 fold change [2, 10] was 1.000 ± 0.050 and the FOXD3-AS1 fold change [2, 11] was 0.842 ± 0.122. The FOXD3-AS1 fold change [2, 12] was 0.826 ± 0.055, the FOXD3-AS1 fold change [2, 13] was 1.053 ± 0.047 and the FOXD3-AS1 fold change [2, 14] was 0.901 ± 0.056. It also gave an FOXD3-AS1 fold change [2, 15] of 0.756 ± 0.076, an FOXD3-AS1 fold change [2, 16] of 1.075 ± 0.124 and an FOXD3-AS1 fold change [2, 17] of 0.847 ± 0.077. The FOXD3-AS1 fold change [2, 18] was 0.798 ± 0.040, the FOXD3-AS1 fold change [2, 19] was 0.944 ± 0.033 and the FOXD3-AS1 fold change [2, 20] was 0.650 ± 0.065. For the same compound, the “inhibition at the WIN site” value (WDR5^WT (WIN site)) was “did not observe any crossover inhibition”, the Ki (WDR5^WT (WIN site); read-out: Ki (tracer 1F), WIN site, WDR5^WT 2 nM, 1F 0.6 nM, HEPES pH 7.0, 0.01% Triton-X, 1% DMSO, mean ± SD of four replicates (two biological x two technical), converted from IC50) was > 40 µM and the HOTTIP fold change ([3]; 1 µM, 3 d, exp 7 (individual bioreplicate), vs blank = 1.000) was 0.923 ± 0.164. The HOTTIP fold change [3, 4] was 0.821 ± 0.069, the HOTTIP fold change [3, 5] was 1.189 ± 0.152 and the HOTTIP fold change [3, 6] was 0.643 ± 0.184. The HOTTIP fold change [3, 7] was 0.877 ± 0.062, the HOTTIP fold change [3, 8] was 0.915 ± 0.153 and the HOTTIP fold change [3, 9] was 0.963 ± 0.284. The HOTTIP fold change [3, 10] was 1.521 ± 0.182, the HOTTIP fold change [3, 11] was 1.129 ± 0.176 and the HOTTIP fold change [3, 12] was 0.970 ± 0.197. It also gave an HOTTIP fold change [3, 13] of 0.988 ± 0.141, an HOTTIP fold change [3, 14] of 0.618 ± 0.071 and an HOTTIP fold change [3, 15] of 0.464 ± 0.082. It also gave an HOTTIP fold change [3, 16] of 0.570 ± 0.035, an HOTTIP fold change [3, 17] of 0.733 ± 0.095 and an HOTTIP fold change [3, 18] of 0.646 ± 0.116. For the same compound, the HOTTIP fold change [3, 19] was 1.031 ± 0.214, the HOTTIP fold change [3, 20] was 0.548 ± 0.132 and the “concentration required for significant changes of HOTTIP expression” value [3, 21] was 10 µM.
For `CN1CCN(c2ccc(-c3cccc(CN4CCOCC4)c3)cc2NC(=O)c2c[nH]c(=O)cc2C(F)(F)F)CC1` [OICR-9429], the “concentration of maximum effect on FOXD3-AS1 expression” value [2, 21] was 5 µM and the “concentration of maximum effect on HOTTIP expression” value [3, 21] was 5 µM.
